Holding throughout (test): Caspase Catalytic Activity Assay
Holding throughout (settings): pH 7.4

The target in one assay is T1, Caspase-1 (Homo sapiens, UniProt P29466).
T1 sequence (P29466 whole entry): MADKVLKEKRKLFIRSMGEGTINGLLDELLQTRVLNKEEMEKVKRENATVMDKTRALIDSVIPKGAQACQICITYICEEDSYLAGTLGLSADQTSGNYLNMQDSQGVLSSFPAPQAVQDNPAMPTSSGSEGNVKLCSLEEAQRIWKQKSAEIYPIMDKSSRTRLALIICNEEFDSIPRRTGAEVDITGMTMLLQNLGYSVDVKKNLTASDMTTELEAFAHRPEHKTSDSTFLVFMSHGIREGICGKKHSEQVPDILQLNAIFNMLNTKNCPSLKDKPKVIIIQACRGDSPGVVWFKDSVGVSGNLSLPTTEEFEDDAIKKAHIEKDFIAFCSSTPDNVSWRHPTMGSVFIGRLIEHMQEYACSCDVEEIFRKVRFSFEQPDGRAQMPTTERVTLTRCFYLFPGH
On the procedure:
(§1) ECB (Enzo Caspase Buffer): 50 mM HEPES (pH 7.4), 100 mM NaCl, 0.5% Tween 20, 10 mM DTT, and 10% glycerol; SCB (Standard Caspase Buffer): 20 mM PIPES (pH 7.5), 100 mM NaCl, 1 mM EDTA, 10 mM DTT, and 10% sucrose; HCB (High-Citrate Buffer): 50 mM Tris-HCl (pH 7.5), 1 M sodium citrate, 10 mM DTT, and 10% sucrose. Activity was measured as the change in luminescent signal for at least 30 min.

For the next assay, the target named is T2, Caspase-3 (Homo sapiens, UniProt P42574).
T2 sequence (P42574 whole entry): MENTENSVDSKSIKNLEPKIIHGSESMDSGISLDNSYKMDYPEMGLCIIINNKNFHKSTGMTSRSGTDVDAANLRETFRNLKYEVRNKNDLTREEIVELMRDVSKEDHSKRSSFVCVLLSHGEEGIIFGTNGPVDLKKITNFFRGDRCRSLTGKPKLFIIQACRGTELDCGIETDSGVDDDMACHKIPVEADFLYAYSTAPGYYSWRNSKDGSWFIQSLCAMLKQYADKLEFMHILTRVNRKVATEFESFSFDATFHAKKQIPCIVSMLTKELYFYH
As for the experimental part: as §1

A further assay concerns the target T3, Caspase-4 (Homo sapiens, UniProt P49662).
T3 sequence (P49662 whole entry): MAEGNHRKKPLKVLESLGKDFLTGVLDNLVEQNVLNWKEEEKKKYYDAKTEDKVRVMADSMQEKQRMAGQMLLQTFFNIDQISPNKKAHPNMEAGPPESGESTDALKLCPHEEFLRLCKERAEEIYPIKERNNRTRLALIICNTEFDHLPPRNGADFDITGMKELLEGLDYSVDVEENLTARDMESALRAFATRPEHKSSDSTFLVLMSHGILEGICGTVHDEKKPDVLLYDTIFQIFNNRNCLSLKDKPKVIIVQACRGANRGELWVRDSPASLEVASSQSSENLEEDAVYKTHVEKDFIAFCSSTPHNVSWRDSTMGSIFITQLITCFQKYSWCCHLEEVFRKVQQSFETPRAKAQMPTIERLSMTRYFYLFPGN
On the procedure: as §1

The target in another assay is T4, Caspase-5 (Homo sapiens, UniProt P51878).
T4 sequence (P51878 whole entry): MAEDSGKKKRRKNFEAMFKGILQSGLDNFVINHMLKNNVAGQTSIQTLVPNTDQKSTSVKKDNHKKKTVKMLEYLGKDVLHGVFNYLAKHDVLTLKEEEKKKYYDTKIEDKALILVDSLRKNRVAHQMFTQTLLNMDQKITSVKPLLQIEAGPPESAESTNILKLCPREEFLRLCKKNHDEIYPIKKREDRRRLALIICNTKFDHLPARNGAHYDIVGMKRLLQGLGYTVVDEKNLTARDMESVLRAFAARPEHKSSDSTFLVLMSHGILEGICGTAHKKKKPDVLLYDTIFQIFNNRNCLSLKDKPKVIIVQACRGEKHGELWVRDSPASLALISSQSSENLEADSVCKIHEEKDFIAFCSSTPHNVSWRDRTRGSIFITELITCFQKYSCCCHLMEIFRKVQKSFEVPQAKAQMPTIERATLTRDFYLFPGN
On the procedure:
as §1

Another assay concerns the target T5, Caspase-9 (Homo sapiens, UniProt P55211).
T5 sequence (P55211 whole entry): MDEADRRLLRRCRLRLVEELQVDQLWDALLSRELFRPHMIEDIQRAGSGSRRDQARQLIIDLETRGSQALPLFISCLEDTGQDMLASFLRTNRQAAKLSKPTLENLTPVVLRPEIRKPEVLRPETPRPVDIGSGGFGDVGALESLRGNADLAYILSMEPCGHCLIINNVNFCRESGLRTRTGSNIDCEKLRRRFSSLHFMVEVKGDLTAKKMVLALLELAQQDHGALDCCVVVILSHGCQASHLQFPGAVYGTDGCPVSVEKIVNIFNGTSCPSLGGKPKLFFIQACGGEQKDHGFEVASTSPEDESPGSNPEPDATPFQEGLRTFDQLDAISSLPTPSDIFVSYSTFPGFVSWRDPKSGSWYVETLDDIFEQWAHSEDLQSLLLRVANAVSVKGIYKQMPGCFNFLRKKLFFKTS
On the procedure: as §1

As a reminder, the IC50 is the midpoint of a concentration-inhibition curve. High values mean lower potency, low ones higher potency.

Structures are written as SMILES.

Turning to `CC(C(=O)O)c1cccc(C(=O)c2ccccc2)c1` (stereo not given) [2-(3-benzoylphenyl)propanoic acid], the half-inhibitory concentration (IC50) on Caspase-1 is > 66000 nM; against Caspase-3 it was 50000 nM; on Caspase-4 it was 10000 nM; at Caspase-5, 10000 nM; on Caspase-9, 10000 nM.

`O=C(O)CCC(=O)c1ccc(-c2ccccc2)cc1` [3-(4-biphenylylcarbonyl)propionic acid]: the IC50 was found to be 4400 nM against Caspase-1; 1200 nM against Caspase-3; 570 nM against Caspase-4; 870 nM on Caspase-5; 760 nM against Caspase-9.

As for `COc1ccc2cc([C@H](C)C(=O)O)ccc2c1` [(2S)-2-(6-methoxynaphthalen-2-yl)propanoic acid], the IC50 at Caspase-1 is > 66000 nM; on Caspase-3, 55000 nM; on Caspase-4, 15000 nM; against Caspase-5, 11000 nM; against Caspase-9 it was 10000 nM.

With `CC(C(=O)O)c1ccc(N2Cc3ccccc3C2=O)cc1` (stereo not drawn) [(+)-2-(4-(1-oxoisoindolin-2-yl)phenyl)propanoic acid], the IC50 came to 3600 nM on Caspase-1; 1400 nM against Caspase-3; 570 nM against Caspase-4; 590 nM against Caspase-5; 300 nM against Caspase-9.

`O=C(O)Cc1ccc(-c2ccccc2)cc1` [Felbinac]: the IC50 was 35000 nM against Caspase-1; 14000 nM on Caspase-3; 2000 nM against Caspase-4; 2600 nM against Caspase-5; 1800 nM on Caspase-9.

For the compound `CC(C(=O)O)c1ccc(C(=O)c2ccccc2)s1` (stereo not given) [Tiaprofenic acid], the IC50 came out at 1600 nM against Caspase-1; 810 nM against Caspase-3; 380 nM against Caspase-4; 470 nM at Caspase-5; 2200 nM against Caspase-9.

Take `O=C(c1ccccc1)c1ccc2n1CCC2C(=O)O` (stereo not given) [Toradol]: the IC50 against Caspase-1 was 18000 nM; against Caspase-3, 2500 nM; on Caspase-4 it was 860 nM; against Caspase-5 it was 1000 nM; at Caspase-9, 850 nM.
